Data: paper doi:10.1101/2021.05.17.444542v1, “Structure Activity Relationship of USP5 Allosteric Inhibitors” (biorxiv, 2021)

Target: T1, USP5 ZnF-UBD (USP5 171-290) (Homo sapiens, UniProt P45974)
T1 sequence (P45974 171-290): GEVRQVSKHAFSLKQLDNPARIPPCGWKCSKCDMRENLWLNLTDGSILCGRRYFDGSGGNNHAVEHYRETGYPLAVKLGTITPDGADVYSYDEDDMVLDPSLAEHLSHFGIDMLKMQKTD
Settings: FITC-ubiquitin displacement, N=1; 100 µM; inhibitor

O=C(O)CCC(=O)c1cccc(NS(=O)(=O)c2cc(F)cc(C(=O)O)c2)c1 [S6]
% inhibition: 3%

O=C(O)CCC(=O)c1cccc(NS(=O)(=O)c2c[nH]c3ncccc23)c1 [S1]
% inhibition: 40%

Cc1ccc(OC(C)CNS(=O)(=O)c2ccc(C(=O)CCC(=O)O)cc2)cc1 (stereo not drawn) [S8]
% inhibition: 37%

CN(c1ccc(S(C)(=O)=O)cc1)S(=O)(=O)c1ccc(C(=O)CCC(=O)O)cc1 [S4]
% inhibition: 61%

O=C(O)CCC(=O)c1cccc(NS(=O)(=O)c2c[nH]c(C(=O)N3CCCC3)c2)c1 [S5]
% inhibition: 50%

O=C(O)CCC(=O)c1cccc(NS(=O)(=O)c2ccc(Cl)c(C(=O)O)c2)c1 [S9]
% inhibition: 26%

CCCn1nc(C)c(-c2ccc(OC)c(C(=O)CCC(=O)O)c2)c1C [S7]
% inhibition: 32%

CC(CC(=O)c1cccc(-c2ccc3c(c2)CCCO3)c1)C(=O)O (stereo not drawn) [S3]
% inhibition: 31%

Cc1ccc(C(=O)O)cc1S(=O)(=O)Nc1cccc(C(=O)CCC(=O)O)c1 [S2]
% inhibition: 36%
